We go through 28 molecules from ChEMBL document CHEMBL1142823, “Analysis of structure-activity relationships for the 'B-region' of N-(4-t-butylbenzyl)-N'-[4-(methylsulfonylamino)benzyl]-thiourea analogues as TRPV1 antagonists” (Bioorg Med Chem Lett, 2005).

Some results are limits rather than exact numbers.

The target in assay [1] is T1, Transient receptor potential cation channel subfamily V member 1 (Rattus norvegicus, UniProt O35433). Nature of the assay: Antagonist activity towards rat TRPV1 expressed in CHO cells; Not effective. It is filed as functional, cell-based.
T1 sequence (O35433 whole entry): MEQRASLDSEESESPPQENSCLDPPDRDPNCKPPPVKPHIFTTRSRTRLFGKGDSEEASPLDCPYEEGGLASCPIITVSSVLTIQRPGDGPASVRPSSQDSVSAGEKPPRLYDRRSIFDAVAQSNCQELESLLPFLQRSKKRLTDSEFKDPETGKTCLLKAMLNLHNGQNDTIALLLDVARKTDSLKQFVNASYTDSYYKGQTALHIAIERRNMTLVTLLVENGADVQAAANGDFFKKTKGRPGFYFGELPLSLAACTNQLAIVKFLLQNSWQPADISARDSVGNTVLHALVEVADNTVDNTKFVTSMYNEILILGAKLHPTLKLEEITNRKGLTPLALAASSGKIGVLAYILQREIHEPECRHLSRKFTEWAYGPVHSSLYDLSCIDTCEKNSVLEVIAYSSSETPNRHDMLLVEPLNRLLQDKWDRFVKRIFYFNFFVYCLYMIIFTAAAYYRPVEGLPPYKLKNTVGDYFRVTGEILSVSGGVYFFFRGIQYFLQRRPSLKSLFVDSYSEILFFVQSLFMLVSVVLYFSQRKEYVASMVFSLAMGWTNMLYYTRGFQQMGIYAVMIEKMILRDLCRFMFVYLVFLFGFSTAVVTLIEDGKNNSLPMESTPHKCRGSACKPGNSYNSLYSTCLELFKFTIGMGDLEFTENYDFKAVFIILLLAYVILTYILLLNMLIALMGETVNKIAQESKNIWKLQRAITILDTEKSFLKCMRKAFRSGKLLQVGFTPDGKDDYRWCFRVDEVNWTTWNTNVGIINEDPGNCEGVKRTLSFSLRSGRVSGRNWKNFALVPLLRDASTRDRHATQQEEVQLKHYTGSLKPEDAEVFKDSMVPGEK
Assay [2] addresses T1, Transient receptor potential cation channel subfamily V member 1. Nature of the assay: Induction of [Ca2+] uptake in CHO cells expressing rat TRPV1 at 10-30 uM relative to 300 nM capsaicin; Not effective. In kind it is functional, cell-based.
For assay [3] the target is unchanged. Nature of the assay: Antagonist activity towards rat TRPV1 expressed in CHO cells. It is filed as functional, cell-based.
The target is the same in assay [4]. Nature of the assay: In vitro inhibition of [3H]RTX binding to rat TRPV1 expressed in CHO cells. In kind it is cell-based.
For assay [5] the target is unchanged. Nature of the assay: Induction of [Ca2+] uptake in CHO cells expressing rat TRPV1 at 10-30 uM relative to 300 nM capsaicin; Weakly effective. It is filed as functional, cell-based.
For assay [6] the target is unchanged. Nature of the assay: Induction of [Ca2+] uptake in CHO cells expressing rat TRPV1 relative to 300 nM capsaicin. In kind it is functional, cell-based.

Take `CC(C)(C)c1ccc(CC(=O)N(O)Cc2ccc(NS(C)(=O)=O)cc2)cc1`: in assay [1], the Ki entry was “Not Active”.
For `Oc1cc2c(cc1O)CN(C(=S)NCCc1ccc(Cl)cc1)CCC2` [CAPSAZEPINE], the EC50 result in assay [2] is “Not Active”.
Regarding `CC(C)(C)c1ccc(C/N=C(\S)OCc2ccc(NS(C)(=O)=O)cc2)cc1`, the inhibition constant Ki in assay [3] stood at 222 nM; in assay [4], 772 nM. Moreover, in assay [2], the EC50 entry was “Not Active”.
On to `CC(C)(C)c1ccc(CN(O)/C(S)=N/Cc2ccc(NS(C)(=O)=O)cc2)cc1`, for which the Ki in assay [3] amounted to 470 nM. In assay [5], this molecule displayed an efficacy of 16%.
`CC(C)(C)c1ccc(CN(O)/C(S)=N/Cc2ccc(NS(C)(=O)=O)c([N+](=O)[O-])c2)cc1` yielded a Ki in assay [3] of 635 nM. Also, the EC50 result in assay [2] was “Not Active”.
As to `CC(C)(C)c1ccc(CN(O)/C(S)=N/Cc2ccc(NS(C)(=O)=O)c(Cl)c2)cc1`, the figures for the inhibitory constant (Ki) in assay [3] and in assay [4] were 579 nM and 1310 nM, respectively. Further, the 50% effective concentration (EC50) entry in assay [2] is “Not Active”.
On to `Cc1ccc(CCCNC(=O)Cc2ccc(NS(C)(=O)=O)cc2)cc1C`, for which the Ki in assay [3] was 13600 nM; in assay [4] it was 7180 nM. In assay [2], the 50% effective concentration (EC50) result is given as “Not Active”.
In turn, `Cc1ccc(CCCNC(=O)Cc2ccc(NS(C)(=O)=O)c(F)c2)cc1C` came in with an inhibition constant (Ki) in assay [3] of 4660 nM. For the same molecule, in assay [2], the half-maximal effective concentration (EC50) result is recorded as “Not Active”.
Take `CC(C)(C)c1ccc(CNC(=S)NCc2ccc(NS(C)(=O)=O)c(F)c2)cc1`: the Ki in assay [4] stood at 53.5 nM. Also, in assay [2], the concentration giving a half-maximal response (EC50) entry is given as “Not Active”.
In the case of `CC(C)(C)c1ccc(CNC(=O)Cc2ccc(NS(C)(=O)=O)cc2)cc1`, the inhibition constant Ki in assay [3] amounted to 398 nM; in assay [4], 2100 nM. Moreover, in assay [2], the EC50 entry is recorded as “Not Active”.
`CCCCCCCC/C=C\CCCCCCCCNC(=O)Cc1ccc(NS(C)(=O)=O)cc1`: the results for the Ki in assay [4] and in assay [1] were above 25000 nM and “Not Active”, respectively. The concentration for a half-maximal effect (EC50) entry in assay [2] is reported as “Not Active”.
As to `COc1cc(CNC(=S)NCc2ccc(C(C)(C)C)cc2)ccc1NS(C)(=O)=O`, the values for the Ki in assay [3] and in assay [4] were 3.4 nM and 50.4 nM, respectively. The half-maximal effective concentration (EC50) result in assay [5] is “Partial agonist”.
`CC(C)(C)c1ccc(CN(O)/C(S)=N/Cc2ccc(NS(C)(=O)=O)cc2Cl)cc1`: the Ki in assay [4] is 2270 nM; in assay [1] it was “Not Active”. The half-maximal effective concentration (EC50) entry in assay [2] was “Not Active”.
`CC(C)(C)c1ccc(CNC(=O)NCc2ccc(NS(C)(=O)=O)cc2)cc1`: the inhibition constant Ki turned out to be 225 nM in assay [3] and 2560 nM in assay [4]. Moreover, in assay [2], the EC50 entry was “Not Active”.
As to `CC(C)(C)c1ccc(N/N=C(\S)NCc2ccc(NS(C)(=O)=O)cc2)cc1`, the results for the inhibition constant Ki in assay [3] and in assay [4] were 2010 nM and 6400 nM, respectively. For the same molecule, in assay [2], the EC50 entry was “Not Active”.
As to `CC(C)(C)c1ccc(C/N=C(\S)N(O)Cc2ccc(NS(C)(=O)=O)cc2)cc1`, in assay [3], the affinity corresponds to a Ki of 470 nM. Moreover, in assay [2], the concentration for a half-maximal effect (EC50) entry was “Not Active”.
Turning to `COc1cc(C/N=C(\S)N(O)Cc2ccc(C(C)(C)C)cc2)ccc1NS(C)(=O)=O`, the Ki result in assay [1] is “Not Active”.
As for `CC(C)(C)c1ccc(CO/C(S)=N/Cc2ccc(NS(C)(=O)=O)cc2)cc1`, the figures for the inhibition constant (Ki) in assay [3] and in assay [4] were 6250 nM and 4600 nM, respectively. In assay [5], this molecule returned an efficacy of 13%.
In turn, `COc1cc(C/N=C(\S)OCc2ccc(C(C)(C)C)cc2)ccc1NS(C)(=O)=O` had an inhibition constant (Ki) in assay [3] of 8400 nM. Further, the half-maximal effective concentration (EC50) entry in assay [2] is reported as “Not Active”.
`CC(C)(C)c1ccc(CNC(=S)NCc2ccc(NS(C)(=O)=O)cc2)cc1`: the EC50 result in assay [2] is “Not Active”.
As for `COc1cc(CO/C(S)=N/Cc2ccc(C(C)(C)C)cc2)ccc1NS(C)(=O)=O`, the inhibition constant Ki in assay [3] stood at 110 nM; in assay [4] it was 461 nM. In addition, the concentration giving a half-maximal response (EC50) result in assay [2] was “Not Active”.
`CC(C)(C)c1ccc(CN(O)/C(S)=N/Cc2ccc(NS(C)(=O)=O)c(F)c2)cc1`: the half-maximal effective concentration (EC50) in assay [6] was above 7060 nM. The inhibition constant (Ki) result in assay [1] is “Not Active”.
As to `CC(C)(C)c1ccc(CNC(=O)N(O)Cc2ccc(NS(C)(=O)=O)cc2)cc1`, in assay [1], the inhibition constant (Ki) entry was “Not Active”.
`CC(C)(C)c1ccc(CNC(=O)Cc2ccc(NS(C)(=O)=O)c(F)c2)cc1`: the inhibition constant Ki in assay [3] was found to be 118 nM; in assay [4], 472 nM. The concentration for a half-maximal effect (EC50) entry in assay [2] is reported as “Not Active”.
In the case of `CC(C)(C)c1ccc(C/N=C(\S)OCc2ccc(NS(C)(=O)=O)c(F)c2)cc1`, the Ki worked out at 120 nM in assay [3] and 450 nM in assay [4]. Further, in assay [5], the efficacy was found to be 7%.
As to `CC(C)(C)c1ccc(CC(=O)NCc2ccc(NS(C)(=O)=O)cc2)cc1`, the Ki in assay [3] worked out at 6760 nM; in assay [4] it was 5220 nM. The same molecule yielded an efficacy in assay [5] of 20%.
In the case of `CC(C)(C)c1ccc(CN(O)C(=O)Cc2ccc(NS(C)(=O)=O)cc2)cc1`, in assay [3], the inhibition constant (Ki) came to 6600 nM. The efficacy in assay [5] was found to be 30%.
In the case of `CC(C)(C)c1ccc(C/N=C(\S)NNc2ccc(NS(C)(=O)=O)cc2)cc1`, the affinity in assay [3], expressed as Ki, was 1460 nM. The concentration for a half-maximal effect (EC50) result in assay [2] is given as “Not Active”.
